From patent publication US12642771B2, “Compositions comprising PGI2-receptor agonists and processes for the preparation thereof” (Arena Pharmaceuticals, Inc., priority 2017, dated 2026)

How the values were obtained:
[1] = Example 7B: open-label multiple-dose escalation pharmacokinetic study of modified-release tablet, fasted or fed healthy subjects; type: in vivo, human
Experimental: B. A second open-label, non-randomized pharmacokinetic study was conducted in healthy subjects. Fasted (cohort 1; n=19) or fed state (cohort 2, n=18) subjects received a modified-release tablet formulation of Compound 1 in a dose escalation sequence over 25 days (once daily dosing started at 0.06 mg and was slowly titrated, depending upon individual subject tolerability, by additional 0.06 mg dose increments every 5 days up to 0.3 mg once daily).
Each subject received a once daily dose of the modified-release Compound 1 for 5 days, with up to four sequential dose escalations every 5 days: • Regimen A (0.06 mg modified-release Compound 1): 1×0.06 mg Compound 1 modified-release tablet for 5 days • Regimen B (0.12 mg modified-release Compound 1): 2×0.06 mg Compound 1 modified-release tablet for 5 days • Regimen C (0.18 mg modified-release Compound 1): 3×0.06 mg Compound 1 modified-release tablet for 5 days • Regimen D (0.24 mg modified-release Compound 1): 4×0.06 mg Compound 1 modified-release tablet for 5 days • Regimen E (0.30 mg modified-release Compound 1): 5×0.06 mg Compound 1 modified-release tablet for 5 days

[2] = Example 8: 22-week randomized, double-blind, placebo-controlled study (PVR, 6MWD, plasma levels, adverse events); type: in vivo, human
Experimental: A 22-week randomized, double-blind, placebo-controlled study with a dose titration period of up to 9 weeks was conducted. Sixty-one patients were randomized 2:1 Compound 1 to placebo. Right Heart Catheterization (RHC) measurements were obtained prior to study Day 1 of the dose titration period and at Week 22. The following values were obtained and recorded: pulmonary artery pressure (PAP) (systolic, diastolic, and mean), heart rate (HR), right atrial pressure (RAP), pulmonary capillary wedge pressure (PCWP) right ventricular pressure (RVP) and cardiac output (CO), pulmonary vascular resistance (PVR), arterial and mixed venous oxygen saturation […] (if applicable). Systemic vascular resistance (SVR) was estimated from blood pressure measurements. The 6-minute walk test (6MWD) was conducted according to the modified guidelines issued by the American Thoracic Society. See Am J Respir Crit Care Med 166:111-117, 2002.
Primary efficacy endpoints for the study were: a) change from baseline in PVR after 22 weeks of treatment, and b) change from baseline in 6 MWD after 22 weeks of treatment.
Compound 1 was administered as a capsule in 0.01, 0.02, 0.03, 0.04, and 0.10 mg dose strengths. The formulation was supplied as a liquid-filled, size 4, hard-gelatin capsule containing Compound 1, polyoxyl 40 hydrogenated castor oil (Kolliphor® RH40) NF, butylated hydroxytoluene (BHT)NF, and colloidal silicon dioxide NF.
The starting dose of Compound 1 was 0.01 mg twice daily. The dose of Compound 1 was titrated according to patient tolerability. If the initial dose was tolerated (0.01 mg twice daily), then the dose was increased once a week in the following fashion: 0.02 mg twice daily, 0.03 mg twice daily, 0.04 mg twice daily, 0.06 mg twice daily, 0.08 mg, 0.1 mg twice daily, 0.2 mg twice daily and 0.3 mg twice daily. The dose was optionally escalated to a possible maximum total daily dose of 0.6 mg (0.3 mg twice daily), pending tolerability.

[3] = Release (dissolution) profile of modified-release tablets, USP Apparatus 1 (baskets) at 100 rpm, 500 mL aqueous sodium phosphate 0.05 M, pH 6.8; type: physicochemical
Excerpt: USP Apparatus 1 (BASKETS) is described, for example, in the United States Pharmacopeial Convention, Feb. 1, 2012, Chapter <711> (“Dissolution”), incorporated by reference herein in its entirety. See http://www.usp.org/sites/default/files/usp_pdf/EN/USPNF/revisions/m99470-gc_711.pdf. The USP Apparatus 1 (baskets) assembly consists of the following: a vessel, which may be covered, made of glass or other inert, transparent material; a motor; a metallic drive shaft, and a cylindrical basket. The materials should not sorb, react, or interfere with the specimen being tested. The vessel is partially immersed in a suitable water bath of any convenient size or heated by a suitable device such as a heating jacket. The water bath or heating device permits holding the temperature inside the vessel at 37±0.5° during the test and keeping the bath fluid in constant, smooth motion. No part of the assembly, including the environment in which the assembly is placed, contributes significant motion, agitation, or vibration beyond that due to the smoothly rotating stirring element. An apparatus that permits observation of the specimen and stirring element during the test is preferable. The vessel is cylindrical, with a hemispherical bottom and with one of the following dimensions and capacities: for a nominal capacity of 1 L, the height is 160 mm to 210 mm and its inside diameter is 98 mm to 106 mm; for a nominal capacity of 2 L, the height is 280 mm to 300 mm and its inside diameter is 98 mm to 106 mm; and for a nominal capacity of 4 L, the height is 280 mm to 300 mm and its inside diameter is 145 mm to 155 mm. Its sides are flanged at the top. A fitted cover may be used to retard evaporation. If a cover is used, it provides sufficient openings to allow ready insertion of the thermometer and withdrawal of specimens. The shaft is positioned so that its axis is not more than 2 mm at any point from the vertical axis of the vessel and rotates smoothly and without significant wobble that could affect the results. The vertical center line of the blade passes through the axis of the shaft so that the bottom of the blade is flush with the bottom of the shaft. A distance of 25±2 mm between the bottom of the blade and the inside bottom of the vessel is maintained during the test. The metallic or suitably inert, rigid blade and shaft comprise a single entity. A suitable two-part detachable design may be used provided the assembly remains firmly engaged during the test. […]
The release profiles for modified-release tablets were measured using USP Apparatus 1 (baskets).
All release profiles disclosed in Tables 6a-6d were measured with USP Apparatus 1 (baskets) at 100 rpm in 500 mL of aqueous sodium phosphate at a concentration of 0.05 M (pH=6.8). […]

With `O=C(O)COC[C@H]1CC[C@H](COC(=O)N(c2ccccc2)c2ccc(Cl)cc2)CC1` [Compound 1, 2-(((1r,4r)-4-(((4-chlorophenyl)(phenyl)carbamoyloxy)methyl)cyclohexyl)methoxy)acetic acid] the “Exposure in the fed and fasted states” value ([1]; after single administration and at steady state) was “similar”, the “increase of Cmax at steady state, female vs male subjects” value ([1]; modified-release tablet) was “greater than 42%” and the “mean plasma exposure measures, females compared to males” value ([1]; modified-release tablet once daily) was “Somewhat higher”. The peak-trough fluctuation ([1]; modified-release tablet once daily, across dose levels) was “low peak-trough fluctuation”, the “Tmax, fed state” value ([1]; modified-release tablet, fed vs fasted) was “delayed in the fed state” and the Adverse events ([2]; 22-week study) was “consistent with other prostacyclin treatments”. The “6-minute walk distance (6MWD)” value ([2]; after 22 weeks of treatment) was “numerical improvement”, the “change from baseline in pulmonary vascular resistance (PVR) compared to placebo” value ([2]; after 22 weeks of treatment, capsule twice daily, titrated up to 0.3 mg twice daily) was “statistically significant change from baseline” and the “mean pre-dose and 4-hours post-dose plasma levels” value ([2]; immediate-release capsule twice daily, titrated, patients) was “appear similar to those previously observed in healthy human subjects”. For the same compound, the “correlation of 4 hour post-dose plasma concentrations with percent change from baseline in PVR and 6MWD” value ([2]; in vivo) was “strong and positive correlation”, the “difference of % by weight released, initial profile vs after storage” value ([3]; tablets 0.05 mg and 0.5 mg Compound 1 (FIGS. 12, 13), storage at 40° C. and 75% RH for six months, any time point equal to or greater than 2 hours) was no more than 10% and the “release rate relative to modified-release capsule” value ([3]; tablets 0.5 mg Compound 1 with 40% HPMC K4M CR, 100 mg, 7 kP) was “faster than that of the modified-release capsule”. For the same compound, the “release rate relative to modified-release capsule” value ([3]; tablets with 30% HPMC K4M and 20% HPMC K100 LVCR, wet granulation) was “slightly faster than that of the modified-release capsule” and the “release rate relative to modified-release capsule” value ([3]; tablets with 40% HPMC K4M and 10% HPMC K100 LVCR, wet granulation) was “faster than that of the modified-release capsule at time points <6 hrs but slower than that of the modified-release capsule at time points 6 hrs”.
